Our source for the Ki values is BindingDB's records for doi:10.1007/s002100000312 (Biocentre Niederursel, 2000).

Assay [1] concerns the target T1, P2X purinoceptor 1 (Rattus norvegicus, UniProt P47824).
T1 sequence (P47824 whole entry): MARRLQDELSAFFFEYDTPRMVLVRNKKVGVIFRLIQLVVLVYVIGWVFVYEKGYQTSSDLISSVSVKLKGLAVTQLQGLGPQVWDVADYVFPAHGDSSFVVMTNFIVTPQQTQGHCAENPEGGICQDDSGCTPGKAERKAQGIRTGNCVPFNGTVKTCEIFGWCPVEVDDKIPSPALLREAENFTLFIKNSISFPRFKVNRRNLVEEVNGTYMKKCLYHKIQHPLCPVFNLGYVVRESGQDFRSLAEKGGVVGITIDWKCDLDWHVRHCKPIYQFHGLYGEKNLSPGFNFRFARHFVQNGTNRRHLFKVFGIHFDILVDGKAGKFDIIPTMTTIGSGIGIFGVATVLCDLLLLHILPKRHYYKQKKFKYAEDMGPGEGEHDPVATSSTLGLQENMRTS

The target in another assay is T2, P2X purinoceptor 7 (Homo sapiens, UniProt Q99572).
T2 sequence (Q99572 whole entry): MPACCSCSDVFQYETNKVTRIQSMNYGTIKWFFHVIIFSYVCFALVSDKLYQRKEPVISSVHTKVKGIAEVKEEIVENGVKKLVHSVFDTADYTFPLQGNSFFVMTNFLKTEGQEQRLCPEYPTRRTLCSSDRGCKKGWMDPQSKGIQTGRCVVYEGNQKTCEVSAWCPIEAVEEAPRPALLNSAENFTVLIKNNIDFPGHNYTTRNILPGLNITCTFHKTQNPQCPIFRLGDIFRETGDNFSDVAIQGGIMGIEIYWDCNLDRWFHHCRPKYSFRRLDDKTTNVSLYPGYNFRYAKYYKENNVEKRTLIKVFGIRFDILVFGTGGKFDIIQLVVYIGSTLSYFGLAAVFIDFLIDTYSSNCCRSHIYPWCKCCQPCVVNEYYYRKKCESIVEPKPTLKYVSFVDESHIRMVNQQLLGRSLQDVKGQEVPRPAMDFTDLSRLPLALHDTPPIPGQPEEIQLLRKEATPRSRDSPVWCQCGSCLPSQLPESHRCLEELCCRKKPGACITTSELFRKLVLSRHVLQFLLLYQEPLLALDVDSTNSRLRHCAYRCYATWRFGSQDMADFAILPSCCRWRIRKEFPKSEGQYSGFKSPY

The target of the next assay is T3, P2X purinoceptor 4 (Homo sapiens, UniProt Q99571).
T3 sequence (Q99571 whole entry): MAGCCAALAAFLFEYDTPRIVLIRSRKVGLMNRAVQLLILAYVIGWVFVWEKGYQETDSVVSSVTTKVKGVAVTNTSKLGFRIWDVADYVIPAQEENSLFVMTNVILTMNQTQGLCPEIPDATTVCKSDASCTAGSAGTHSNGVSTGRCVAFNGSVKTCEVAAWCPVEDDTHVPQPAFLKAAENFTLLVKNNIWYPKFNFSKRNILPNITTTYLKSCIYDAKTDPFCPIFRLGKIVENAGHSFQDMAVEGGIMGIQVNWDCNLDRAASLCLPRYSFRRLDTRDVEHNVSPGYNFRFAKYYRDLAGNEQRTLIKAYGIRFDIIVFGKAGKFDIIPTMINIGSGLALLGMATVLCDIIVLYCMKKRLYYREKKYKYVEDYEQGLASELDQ

In assay [2] the target is T4, P2X purinoceptor 1 (Homo sapiens, UniProt P51575).
T4 sequence (P51575 whole entry): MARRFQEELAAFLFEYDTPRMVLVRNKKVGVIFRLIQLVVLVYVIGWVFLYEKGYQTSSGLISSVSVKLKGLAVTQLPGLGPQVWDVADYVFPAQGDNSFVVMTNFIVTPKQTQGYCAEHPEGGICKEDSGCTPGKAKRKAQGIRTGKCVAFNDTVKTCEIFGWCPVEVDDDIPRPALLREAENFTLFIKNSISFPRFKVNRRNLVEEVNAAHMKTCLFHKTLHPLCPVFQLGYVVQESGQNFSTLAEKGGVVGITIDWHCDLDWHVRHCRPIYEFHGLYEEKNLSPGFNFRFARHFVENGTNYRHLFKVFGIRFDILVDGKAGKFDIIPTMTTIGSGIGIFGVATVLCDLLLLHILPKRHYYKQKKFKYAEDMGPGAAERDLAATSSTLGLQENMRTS

Another assay has as its target T5, P2X purinoceptor 2 (Rattus norvegicus, UniProt P49653).
T5 sequence (P49653 whole entry): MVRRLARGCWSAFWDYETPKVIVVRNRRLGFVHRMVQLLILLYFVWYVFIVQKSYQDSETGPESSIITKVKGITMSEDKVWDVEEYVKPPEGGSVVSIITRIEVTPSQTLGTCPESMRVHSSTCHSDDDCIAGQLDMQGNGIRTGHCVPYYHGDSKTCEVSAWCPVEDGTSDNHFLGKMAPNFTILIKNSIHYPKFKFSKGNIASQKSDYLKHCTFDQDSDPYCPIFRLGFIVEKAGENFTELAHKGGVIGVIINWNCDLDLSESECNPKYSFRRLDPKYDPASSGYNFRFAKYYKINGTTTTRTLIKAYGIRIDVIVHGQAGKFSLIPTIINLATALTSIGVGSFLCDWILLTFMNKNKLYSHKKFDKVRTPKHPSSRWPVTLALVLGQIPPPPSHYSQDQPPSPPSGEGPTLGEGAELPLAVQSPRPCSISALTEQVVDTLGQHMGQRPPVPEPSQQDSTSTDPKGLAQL

A further assay addresses T6, P2X purinoceptor 3 (Rattus norvegicus, UniProt P49654).
T6 sequence (P49654 whole entry): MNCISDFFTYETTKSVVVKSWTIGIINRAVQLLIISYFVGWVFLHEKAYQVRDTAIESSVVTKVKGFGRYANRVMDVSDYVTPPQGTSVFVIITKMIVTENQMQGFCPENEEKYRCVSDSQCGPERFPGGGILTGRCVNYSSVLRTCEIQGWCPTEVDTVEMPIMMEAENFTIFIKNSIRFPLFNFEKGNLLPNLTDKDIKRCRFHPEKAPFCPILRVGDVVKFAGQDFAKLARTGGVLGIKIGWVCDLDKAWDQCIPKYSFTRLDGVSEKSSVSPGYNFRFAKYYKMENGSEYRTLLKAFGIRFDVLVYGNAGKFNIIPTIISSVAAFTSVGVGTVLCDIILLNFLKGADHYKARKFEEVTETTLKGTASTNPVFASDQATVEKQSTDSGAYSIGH

Where only a bound is given, the exact number is not on record here.

Turning to `O=C(Nc1ccc(C(=O)Nc2ccc(C(=O)Nc3ccc(S(=O)(=O)O)c4cc(S(=O)(=O)O)cc(S(=O)(=O)O)c34)cc2)cc1)Nc1ccc(C(=O)Nc2ccc(C(=O)Nc3ccc(S(=O)(=O)O)c4cc(S(=O)(=O)O)cc(S(=O)(=O)O)c34)cc2)cc1` [CAS_5311315], the inhibitory constant (Ki) (commonly a dissociation constant, usually derived from enzyme kinetics or from competition with a known ligand) on P2X purinoceptor 1 [1] is 1000 nM; on P2X purinoceptor 7, greater than 10000 nM; at P2X purinoceptor 4 it was greater than 10000 nM; on P2X purinoceptor 1 [2], 1000 nM; at P2X purinoceptor 2 it was greater than 10000 nM; at P2X purinoceptor 3 it was 1000 nM.

For `O=C(Nc1cccc(Nc2ccc(S(=O)(=O)O)c3cc(S(=O)(=O)O)cc(S(=O)(=O)O)c23)c1)Nc1cccc(Nc2ccc(S(=O)(=O)O)c3cc(S(=O)(=O)O)cc(S(=O)(=O)O)c23)c1` [NSC_5311313], the Ki on P2X purinoceptor 1 [1] was 1000 nM; on P2X purinoceptor 4 it was greater than 10000 nM; at P2X purinoceptor 2 it was greater than 10000 nM; at P2X purinoceptor 3, 1000 nM.

As for `Cc1ccc(C(=O)Nc2ccc(S(=O)(=O)O)c3cc(S(=O)(=O)O)cc(S(=O)(=O)O)c23)cc1NC(=O)c1cccc(NC(=O)Nc2cccc(C(=O)Nc3cc(C(=O)Nc4ccc(S(=O)(=O)O)c5cc(S(=O)(=O)O)cc(S(=O)(=O)O)c45)ccc3C)c2)c1` [suramin], the inhibition constant Ki at P2X purinoceptor 1 [1] is 50 nM; at P2X purinoceptor 4, 5000 nM; at P2X purinoceptor 2, greater than 10000 nM; at P2X purinoceptor 3, greater than 10000 nM.
